Assays:
Tc1 cells = assay: Metabolic assays (Seahorse ECAR/OCR, mitochondrial pyruvate and acetyl CoA) in Tc1 cells; assay type: cell-based, Mouse
Procedure: The real-time extracellular acidification rate (ECAR) and oxygen consumption rate (OCR) were measured using a Seahorse XF24 analyzer (Seahorse Bioscience), within XF Glycolysis Stress and XF Cell Mito Stress Test kits used to assess glycolysis and oxidative phosphorylation. 5×10^5 cells exposed to the indicated treatments were plated in an XF-24 microplate coated with Cell-Tak (Corning) one day before the assay. ECAR and OCR were measured after metabolic manipulations by the addition of oligomycin, carbonyl cyanide-p-trifluoromethoxy-phenylhydrazone (FCCP), 2-deoxyglucose (2-DG) and rotenone/anti-mycin A (R/A). Calculations were conducted with Agilent Seahorse Wave Software for Agilent Seahorse XF analyzers (Seahorse Bioscience). For isolation of mitochondria, Tc1 cells were frozen and thawed to weaken the membranes and resuspended in Reagent A of a mitochondria isolation kit (ab110170, Abcam), before being homogenized and centrifuged at 1,000×g for 10 minutes at 4° C. Supernatant was saved (SN #1) and the pellet resuspended in Reagent B. After homogenization and centrifugation, supernatant was saved (SN #2). SN #1 and SN #2 were mixed thoroughly and centrifuged at 12,000×g for 15 minutes at 4° C. The pellet was collected in Reagent C supplemented with protease inhibitors and was used for the pyruvate and acetyl COA assays. Briefly, the mitochondrial pyruvate and acetyl CoA levels in the Tc1 cells were assessed using a commercial Pyruvate Assay Kit (ab65342, Abcam) and PicoProbe Acetyl COA Assay Kit (ab87546, Abcam) according to the manufacturer's instructions.

Pan18 cells = assay: Tumorigenicity assay, Pan18 subcutaneous implantation (PDAC-bearing mice); assay type: in vivo
Procedure: (§1) Monoclonal antibodies were purchased from BD Biosciences or eBioscience. For intracellular cytokine staining (ICS), cells were first restimulated by PMA/ionomycin for 5 hours in the presence of GolgiStop (BD Biosciences), followed by surface epitope staining markers before being fixed/permeabilized (BD Cytofix/Cytoperm™) and stained with antibodies targeting intracellular antigens. Cells were finally fixed with 1.5% formaldehyde for 10 minutes at room temperature and analyzed on a FACSVerse flow cytometer (BD Bioscience). Data were analyzed using FlowJo software (Tree Star Inc.).
(§2) For Pan18-subcutaneous implantation, 5×10^5 Pan18 cells were administered to wild-type (WT) or IL-17^−/− mice. Genipin (5 mg/kg, 10 mg/kg, or 30 mg/kg, i.p., every two days) was administered to Pan18-bearing mice for 3 weeks. For 3036-subcutanous implantation, 2×10^5 3036 cells were administered to WT mice. Genipin (10 mg/kg, i.p., every two days) and recombinant anti-IL-17 receptor antibody (αIL-17RA) (1 mg/kg, i.v., once a week) were administered to 3036-bearing mice for 3 weeks. Tumor volumes were evaluated every 2 days. For the orthotopic tumor modelling, mice pancreases were injected with 2×10^5 Pan18 cells and monitored for tumor growth weekly using IVIS kinetics imaging system (Caliper Life-Sciences). Genipin (10 mg/kg, i.p., every two days) or αIL-17RA (1 mg/kg, i.v., once a week) was administered 1 week after tumor implantation. Mice were sacrificed 35 days after tumor induction and tumors weighed. For spontaneous pancreatic cancer model, Cre-dependent conditional knockin mutations of KrasG12D Kras^+/LSLG12D mice (B6; 129-Kras2) were obtained from the Mouse Models of Human Cancer Consortium. Elas-CreERT; Kras^+/LSLG12D mice was generated by breeding Kras^+/LSLG12D mice with Elas-CreER mice obtained from the Level Transgenic Center. To induce the expression of Kras^+/LSLG12D in acinar cells, 5-week-old Elas-CreERT; Kras^+/LSLG12D male mice were injected with 100 μl of tamoxifen (20 mg/ml, i.p., three times per week) for 1 week. To induce chronic inflammation and tumors, 100 μl of cerulein (50 μg/ml, i.p., six times per week) (BACHEM) was given to the mice for 3 weeks. Then, the mice were injected with genipin (10 mg/kg, i.p., every two days) and αIL-17RA (1 mg/kg, i.v., once a week) until the end of the experiment, and overall survival was monitored. For genetically CD4/CD8-specific UCP2 deletion tumor modelling, we generated CD4Cre×UCP2^f/f mice by crossing loxP-UCP2-loxP mice with CD4Cre mice. CD4Cre×UCP2^f/f, WT, and loxP control mice underwent subcutaneous implantation of 2×10^5 Pan18 cells, followed by treatment with αIL-17RA (1 mg/kg, i.v., once a week) for 3 weeks. For melanoma modelling, IL-17/-and WT mice underwent subcutaneous implantation of 5×10^5 B16F10 cells, followed by treatment with genipin (10 mg/kg, i.p., every two days) for 3 weeks. For CD8 depletion tumor modelling, IL-17^−/− mice underwent subcutaneous implantation of 2×10^5 Pan18 cells, followed by treatment with genipin (10 mg/kg, i.p., every two days) and CD8 neutralizing antibody (5 mg/kg, i.v., once a week) for 3 weeks. Tumor volumes were evaluated every 3 days.
Serum levels of IFN-γ, IL-17, TNF-α, IL-12, IL-6, and TGF-β were measured using commercial enzyme-linked immunosorbent assay (ELISA) kits (BD Biosciences; R&D systems; BioLegend) according to the manufacturer's protocol.
Total protein concentration of the tumor lysates was quantified by a Bradford assay. Tumoral chemokine profiles were determined by analyzing 250 μg protein from the tumor lysates using a Proteome Profiler™ Mouse Chemokine Array Kit (ARY020, R&D Systems) according to the manufacturer's instructions. […]

B16F10 cells = assay: Melanoma model, B16F10 subcutaneous implantation; assay type: in vivo; conditions: IL-17−/− mice
Procedure: as §1, §2

[1] = genipin-treated Tc1 cells, data not shown
[2] = IL-17−/− mice, genipin 5 or 10 mg/kg, dose-dependent, FIG. 5C
[3] = IL-17−/− mice, genipin, data not shown
[4] = WT mice, escalating doses of genipin, FIG. 3S

Structure (SMILES): COC(=O)C1=CO[C@@H](O)[C@@H]2C(CO)=CC[C@H]12 [genipin]
- Glycolysis readout, ECAR (Tc1 cells; genipin 12.5 μM, Seahorse XF24, FIG. 2E): no functional impact
- Oxidative phosphorylation, OCR (Tc1 cells; genipin 12.5 μM, Seahorse XF24, FIG. 2F): promoted oxidative phosphorylation
- Acetyl CoA level in the mitochondria (Tc1 cells; genipin-treated Tc1 cells, FIG. 2G): increased the level of acetyl CoA
- Mitochondrial pyruvate (Tc1 cells; genipin-treated Tc1 cells, FIG. 2H): parallel increase
- Acetyl CoA level in the cytosol (Tc1 cells; [1]): increased the level of acetyl CoA
- Cytosolic fraction of pyruvate (Tc1 cells; [1]): decreased
- Tumor growth (tumor volume, tumor weight) (Pan18 cells; IL-17−/− mice, genipin 5 or 10 mg/kg i.p. every two days, 3 weeks, FIG. 5A-5B): synergistic effect to inhibit tumor growth
- Serum IFN-γ (Pan18 cells; [2]): increased
- Serum IL-12 (Pan18 cells; [2]): increased
- Serum TNF-α (Pan18 cells; [2]): increased
- Numbers of Tc1 cells (Pan18 cells; IL-17−/− mice, genipin, FIG. 5D): increased numbers of Tc1 cells
- Numbers of MDSC (Pan18 cells; IL-17−/− mice, genipin, FIG. 5G): decreased numbers of MDSC
- IL-17-ablation driven change in CCL2 level (Pan18 cells; [3]): had no effects
- IL-17-ablation driven change in CXCL10 level (Pan18 cells; [3]): had no effects
- Absolute numbers of Tc1 cells (Pan18 cells; WT mice, escalating doses of genipin i.p. every two days, 3 weeks, FIG. 3A-3C): increases in the absolute numbers
- Serum IFN-γ (Pan18 cells; [4]): increased
- Serum IL-6 (Pan18 cells; [4]): increased
- Serum IL-12 (Pan18 cells; [4]): increased
- Serum TNF-α (Pan18 cells; [4]): increased
- Serum IL-17 (Pan18 cells; WT mice, escalating doses of genipin, end of experiment, FIG. 3S): increased
- Tumorigenesis (tumor volume, tumor weight) (Pan18 cells; WT mice, genipin alone, FIG. 3T-3U): did not suppress tumorigenesis
- Absolute numbers of Th1 cells (Pan18 cells; WT mice, genipin i.p. every two days, 3 weeks, FIG. 3D-3F): increases in the absolute numbers
- Numbers of Tc17 cells (Pan18 cells; WT mice, genipin i.p. every two days, 3 weeks, FIG. 3G-3I): increased
- Numbers of Th17 cells (Pan18 cells; WT mice, genipin i.p. every two days, 3 weeks, FIG. 3J-3L): increased
- Numbers of Treg cells in the lymph nodes and spleens (Pan18 cells; WT mice, genipin i.p., FIG. 3M-3O): decreased
- Numbers of MDSC in the lymph nodes and spleens (Pan18 cells; WT mice, genipin i.p., FIG. 3P-3R): decreased
- Tumor infiltrating MDSC (Pan18 cells; WT mice, genipin i.p., tumor): no changes
- Tumor infiltrating Tc1 cells (Pan18 cells; WT mice, genipin i.p., tumor): no changes
- Tumor infiltrating Th1 cells (Pan18 cells; WT mice, genipin i.p., tumor): no changes
- Tumor growth (tumor volume) (B16F10 cells; genipin 10 mg/kg i.p. every two days, 3 weeks, FIG. 7B): additional effect on the inhibition of tumor growth
- Population of Tc1 cells (B16F10 cells; genipin 10 mg/kg, FIG. 7C): increased the expansion of Tc1 cells
- Population of Th1 cells (B16F10 cells; genipin 10 mg/kg, FIG. 7D): not significantly impacting
- Population of Treg cells (B16F10 cells; genipin 10 mg/kg, FIG. 7E): not significantly impacting
- Prevalence of MDSC (B16F10 cells; genipin 10 mg/kg, FIG. 7F): decreasing prevalence of MDSC
